SMILES strings stand for the structures.

We go through one compound from patent US10894885B2, “Crosslinkable composition and method for producing a coated article” (HWK KRONBICHLER GMBH, priority 2016, dated 2021).

The nature of the data set: Surface tension at a suspended drop (Drop Shape Analyser DSA 25). The class given is physicochemical. To be noted: 23.5-25.0° C., ten measurements. The protocol: The surface tension was determined at a suspended drop using a “Drop Shape Analyser DSA 25” of the Krüss corporation. The measurements were performed at temperatures between 23.5 and 25.0° C. and at a relative humidity of approximately 15-30%. The sample was measured a total of ten times. The standard deviation is marked by s in Table 4 shown below.

With `C=Cn1cc[n+](CCC(F)(F)C(F)(F)C(F)(F)C(F)(F)C(F)(F)C(F)(F)F)c1.[Cl-]` [3-(1H,1H,2H,2H-perfluorooctyl)-1-vinyl-1H-imidazoliumchloride], the “OFS (surface tension)” value came out at 21.94 mN/m (c 0.5 w/w % in water) and 20.58 mN/m (c 1 w/w % in water).
